Measured values taken from ChEMBL document CHEMBL4311959, “Discovery of a potent p38α/MAPK14 kinase inhibitor: Synthesis, in vitro/in vivo biological evaluation, and docking studies” (Eur J Med Chem, 2019).

What was measured:
[1] = biological target: T1, Mitogen-activated protein kinase 14 (Homo sapiens, UniProt Q16539); assay: Inhibition of human p38alpha using MBP as substrate by [gamma-33P]-ATP assay
Rattus norvegicus = assay: Antiinflammatory activity in Sprague-Dawley rat assessed as inhibition of carrageenan-induced paw edema at 50 mg/kg, ip administered 1 hr before carrageenan stimulation and measured after 3 hrs relative to control; type: functional
[2] = biological target: Mitogen-activated protein kinase 8 (Homo sapiens) (UniProt P45983); assay: Inhibition of human JNK1 at 10 uM using ATF2 as substrate by [gamma-33P]-ATP assay relative to control
[3] = biological target: PI3-kinase p110-alpha/p85-alpha (Homo sapiens) (UniProt P27986+P42336); assay: Inhibition of human PI3K (p110alpha/p85alpha) at 10 uM using PI as substrate by ADP-Glo Assay relative to control; type: protein-complex assay
[4] = biological target: Fibroblast growth factor receptor 1 (Homo sapiens) (UniProt P11362); assay: Inhibition of human FGFR1 at 10 uM using KKKSPGEYVNIEFG as substrate by [gamma-33P]-ATP assay relative to control
[5] = biological target: Receptor tyrosine-protein kinase erbB-4 (Homo sapiens) (UniProt Q15303); assay: Inhibition of human ERBB4 at 10 uM using poly[Glu:Tyr] (4:1) as substrate by [gamma-33P]-ATP assay relative to control
[6] = biological target: Tyrosine-protein kinase ABL1 (Homo sapiens) (UniProt P00519); assay: Inhibition of human ABL1 at 10 uM using EAIYAAPFAKKK as substrate by [gamma-33P]-ATP assay relative to control
[7] = biological target: Receptor tyrosine-protein kinase erbB-2 (Homo sapiens) (UniProt P04626); assay: Inhibition of human ERBB2 at 10 uM using poly[Glu:Tyr] (4:1) as substrate by [gamma-33P]-ATP assay relative to control
[8] = biological target: Mast/stem cell growth factor receptor Kit (Homo sapiens) (UniProt P10721); assay: Inhibition of human c-KIT at 10 uM using poly[Glu:Tyr] (4:1) as substrate by [gamma-33P]-ATP assay relative to control
[9] = biological target: Dual specificity mitogen-activated protein kinase kinase 1 (Homo sapiens) (UniProt Q02750); assay: Inhibition of human MEK1 at 10 uM using ERK2 as substrate by [gamma-33P]-ATP assay relative to control
Sequence of Dual specificity mitogen-activated protein kinase kinase 1 (Homo sapiens) (Q02750 whole entry): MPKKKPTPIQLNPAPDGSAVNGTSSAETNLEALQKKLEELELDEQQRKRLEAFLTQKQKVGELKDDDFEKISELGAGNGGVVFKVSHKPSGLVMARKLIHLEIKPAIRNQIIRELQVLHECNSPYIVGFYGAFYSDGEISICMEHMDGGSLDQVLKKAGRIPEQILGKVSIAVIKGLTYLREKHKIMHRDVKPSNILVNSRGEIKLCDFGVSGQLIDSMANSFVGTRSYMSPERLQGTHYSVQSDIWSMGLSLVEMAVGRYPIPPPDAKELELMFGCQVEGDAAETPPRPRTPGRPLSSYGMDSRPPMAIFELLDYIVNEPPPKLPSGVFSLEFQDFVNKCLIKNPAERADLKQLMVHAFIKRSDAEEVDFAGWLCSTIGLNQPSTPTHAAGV

[10] = test system: Serine/threonine-protein kinase B-raf (Homo sapiens), P15056 [V600E]; assay: Inhibition of human BRAF V600E mutant at 10 uM using MEK1 (K97R) as substrate by [gamma-33P]-ATP assay relative to control
[11] = biological target: T1, Mitogen-activated protein kinase 14; assay: Inhibition of recombinant Nanoluc-tagged p38alpha (unknown origin) expressed in HEK293 cells incubated for 2 to 3 mins by NanoBRET assay; type: cell-based
[12] = biological target: Aurora kinase A (Homo sapiens) (UniProt O14965); assay: Inhibition of human Aurora A at 10 uM using [H-LRRASLG] as substrate by [gamma-33P]-ATP assay relative to control
[13] = biological target: RAC-alpha serine/threonine-protein kinase (Homo sapiens) (UniProt P31749); assay: Inhibition of human AKT1 at 10 uM using KGSGSGRPRTSSFAEG as substrate by [gamma-33P]-ATP assay relative to control
Sequence of RAC-alpha serine/threonine-protein kinase (Homo sapiens) (P31749 whole entry): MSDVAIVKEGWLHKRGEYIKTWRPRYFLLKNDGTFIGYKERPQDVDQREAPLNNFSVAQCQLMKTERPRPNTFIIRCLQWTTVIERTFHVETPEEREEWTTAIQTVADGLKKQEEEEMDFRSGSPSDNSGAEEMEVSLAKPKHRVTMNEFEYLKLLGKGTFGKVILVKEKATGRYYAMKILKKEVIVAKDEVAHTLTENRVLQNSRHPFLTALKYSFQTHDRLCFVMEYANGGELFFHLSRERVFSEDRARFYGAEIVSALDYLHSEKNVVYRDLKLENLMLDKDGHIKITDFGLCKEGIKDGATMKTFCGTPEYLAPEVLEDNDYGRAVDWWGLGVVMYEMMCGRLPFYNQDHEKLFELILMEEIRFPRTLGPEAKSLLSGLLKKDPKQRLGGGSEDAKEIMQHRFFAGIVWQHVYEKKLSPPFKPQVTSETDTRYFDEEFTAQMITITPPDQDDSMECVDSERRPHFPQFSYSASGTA

[14] = biological target: Platelet-derived growth factor receptor beta (Homo sapiens) (UniProt P09619); assay: Inhibition of human PDGFRbeta at 10 uM using poly[Glu:Tyr] (4:1) as substrate by [gamma-33P]-ATP assay relative to control
[15] = biological target: T1, Mitogen-activated protein kinase 14; assay: Inhibition of human p38alpha at 10 uM using MBP as substrate by [gamma-33P]-ATP assay relative to control
[16] = biological target: Macrophage colony-stimulating factor 1 receptor (Homo sapiens) (UniProt P07333); assay: Inhibition of human FMS at 10 uM using poly[Glu:Tyr] (4:1) as substrate by [gamma-33P]-ATP assay relative to control
Sequence of Macrophage colony-stimulating factor 1 receptor (Homo sapiens) (P07333 whole entry): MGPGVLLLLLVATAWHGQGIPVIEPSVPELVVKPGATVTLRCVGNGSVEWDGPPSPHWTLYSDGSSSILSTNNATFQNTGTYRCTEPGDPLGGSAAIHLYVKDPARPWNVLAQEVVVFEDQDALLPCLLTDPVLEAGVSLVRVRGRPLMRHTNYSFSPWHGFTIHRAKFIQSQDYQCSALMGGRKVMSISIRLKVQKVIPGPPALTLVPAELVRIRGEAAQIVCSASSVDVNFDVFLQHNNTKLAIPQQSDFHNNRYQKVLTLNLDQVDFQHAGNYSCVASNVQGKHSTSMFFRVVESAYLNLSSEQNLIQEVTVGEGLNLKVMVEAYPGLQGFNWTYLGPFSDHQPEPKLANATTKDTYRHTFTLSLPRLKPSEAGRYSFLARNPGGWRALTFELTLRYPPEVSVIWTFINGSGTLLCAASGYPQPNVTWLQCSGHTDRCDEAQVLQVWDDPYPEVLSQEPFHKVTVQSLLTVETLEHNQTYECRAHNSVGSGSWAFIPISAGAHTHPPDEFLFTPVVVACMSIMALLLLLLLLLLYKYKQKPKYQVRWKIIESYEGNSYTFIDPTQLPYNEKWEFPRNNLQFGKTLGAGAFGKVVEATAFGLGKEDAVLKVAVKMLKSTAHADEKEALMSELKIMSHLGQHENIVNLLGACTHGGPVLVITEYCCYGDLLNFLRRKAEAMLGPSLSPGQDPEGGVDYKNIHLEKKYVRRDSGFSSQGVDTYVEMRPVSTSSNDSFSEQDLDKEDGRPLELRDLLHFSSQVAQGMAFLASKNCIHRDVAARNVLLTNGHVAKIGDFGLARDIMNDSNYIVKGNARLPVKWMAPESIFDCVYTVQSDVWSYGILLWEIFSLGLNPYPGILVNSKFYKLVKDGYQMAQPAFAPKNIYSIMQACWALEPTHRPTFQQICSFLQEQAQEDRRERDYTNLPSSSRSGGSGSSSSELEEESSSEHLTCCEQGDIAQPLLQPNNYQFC

[17] = biological target: ALK tyrosine kinase receptor (Homo sapiens) (UniProt Q9UM73); assay: Inhibition of human ALK at 10 uM using poly[Glu:Tyr] (4:1) as substrate by [gamma-33P]-ATP assay relative to control
Sequence of ALK tyrosine kinase receptor (Homo sapiens) (Q9UM73 19-1620 limits assumed): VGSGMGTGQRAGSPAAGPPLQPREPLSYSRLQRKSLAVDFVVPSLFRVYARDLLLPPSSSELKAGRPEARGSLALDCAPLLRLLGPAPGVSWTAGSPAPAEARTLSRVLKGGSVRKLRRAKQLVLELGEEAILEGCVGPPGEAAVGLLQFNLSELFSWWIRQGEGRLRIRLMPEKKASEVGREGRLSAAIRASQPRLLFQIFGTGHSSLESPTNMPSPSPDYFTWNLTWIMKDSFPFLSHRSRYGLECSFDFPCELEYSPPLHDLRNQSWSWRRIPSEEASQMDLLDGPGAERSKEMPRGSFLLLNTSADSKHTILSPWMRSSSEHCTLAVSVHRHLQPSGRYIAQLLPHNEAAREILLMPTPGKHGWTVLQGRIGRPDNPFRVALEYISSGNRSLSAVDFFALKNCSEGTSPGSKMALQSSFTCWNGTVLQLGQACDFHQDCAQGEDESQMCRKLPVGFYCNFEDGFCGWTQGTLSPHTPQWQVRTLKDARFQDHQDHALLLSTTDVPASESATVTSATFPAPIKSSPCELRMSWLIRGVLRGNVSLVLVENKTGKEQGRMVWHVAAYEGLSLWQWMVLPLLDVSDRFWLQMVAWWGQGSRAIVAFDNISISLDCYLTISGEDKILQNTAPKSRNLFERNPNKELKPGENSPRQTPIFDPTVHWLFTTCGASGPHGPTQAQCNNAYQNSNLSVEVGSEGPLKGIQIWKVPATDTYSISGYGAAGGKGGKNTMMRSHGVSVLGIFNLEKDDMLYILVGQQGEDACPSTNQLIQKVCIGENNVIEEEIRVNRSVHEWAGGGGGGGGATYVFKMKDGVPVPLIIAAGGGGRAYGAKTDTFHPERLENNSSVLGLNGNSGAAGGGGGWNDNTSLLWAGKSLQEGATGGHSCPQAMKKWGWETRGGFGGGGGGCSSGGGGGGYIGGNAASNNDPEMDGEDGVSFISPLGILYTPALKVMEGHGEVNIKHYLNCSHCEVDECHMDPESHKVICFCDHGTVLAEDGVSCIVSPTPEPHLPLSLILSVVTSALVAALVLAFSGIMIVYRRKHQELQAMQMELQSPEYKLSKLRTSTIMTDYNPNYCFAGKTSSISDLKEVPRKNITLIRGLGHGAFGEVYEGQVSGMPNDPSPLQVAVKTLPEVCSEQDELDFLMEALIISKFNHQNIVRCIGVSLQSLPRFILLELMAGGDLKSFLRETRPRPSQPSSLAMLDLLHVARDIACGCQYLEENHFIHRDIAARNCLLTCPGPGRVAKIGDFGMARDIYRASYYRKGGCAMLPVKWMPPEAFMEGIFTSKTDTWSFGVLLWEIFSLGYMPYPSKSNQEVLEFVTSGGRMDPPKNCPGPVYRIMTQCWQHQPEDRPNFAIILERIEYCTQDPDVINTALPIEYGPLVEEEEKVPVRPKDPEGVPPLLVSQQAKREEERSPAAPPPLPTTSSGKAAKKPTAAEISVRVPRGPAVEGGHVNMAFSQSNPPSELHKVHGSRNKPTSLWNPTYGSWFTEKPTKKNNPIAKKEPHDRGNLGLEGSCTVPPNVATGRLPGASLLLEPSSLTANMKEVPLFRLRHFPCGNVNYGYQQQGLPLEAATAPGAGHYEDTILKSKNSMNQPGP

[18] = biological target: Epidermal growth factor receptor (Homo sapiens) (UniProt P00533); assay: Inhibition of human EGFR at 10 uM using poly[Glu:Tyr] (4:1) as substrate by [gamma-33P]-ATP assay relative to control
[19] = biological target: RAF proto-oncogene serine/threonine-protein kinase (Homo sapiens, UniProt P04049); assay: Inhibition of human RAF1 at 10 uM using MEK1 (K97R) as substrate by [gamma-33P]-ATP assay relative to control
[20] = biological target: Tyrosine-protein kinase JAK2 (Homo sapiens) (UniProt O60674); assay: Inhibition of human JAK2 at 10 uM using poly[Glu:Tyr] (4:1) as substrate by [gamma-33P]-ATP assay relative to control
[21] = biological target: DNA-dependent protein kinase catalytic subunit (Homo sapiens) (UniProt P78527); assay: Inhibition of human DNAPK at 10 uM using EPPLSQEAFADLWKK as substrate by […]-ATP assay relative to control
[22] = biological target: Vascular endothelial growth factor receptor 2 (Homo sapiens) (UniProt P35968); assay: Inhibition of human KDR at 10 uM using poly[Glu:Tyr] (4:1) as substrate by [gamma-33P]-ATP assay relative to control
[23] = biological target: Tyrosine-protein kinase JAK1 (Homo sapiens) (UniProt P23458); assay: Inhibition of human JAK1 at 10 uM using poly[Glu:Tyr] (4:1) as substrate by [gamma-33P]-ATP assay relative to control
[24] = biological target: Hepatocyte growth factor receptor (Homo sapiens, UniProt P08581); assay: Inhibition of human c-MET at 10 uM using KKKSPGEYVNIEFG as substrate by [gamma-33P]-ATP assay relative to control
[25] = biological target: Serine/threonine-protein kinase B-raf (Homo sapiens) (UniProt P15056); assay: Inhibition of human BRAF at 10 uM using MEK1 (K97R) as substrate by [gamma-33P]-ATP assay relative to control
[26] = biological target: Receptor-type tyrosine-protein kinase FLT3 (Homo sapiens) (UniProt P36888); assay: Inhibition of human FLT3 at 10 uM using EAIYAAPFAKKK as substrate by [gamma-33P]-ATP assay relative to control
[27] = biological target: Serine/threonine-protein kinase A-Raf (Homo sapiens) (UniProt P10398); assay: Inhibition of human ARAF at 10 uM using MEK1 as substrate by [gamma-33P]-ATP assay relative to control
Sequence of Serine/threonine-protein kinase A-Raf (Homo sapiens) (P10398 whole entry): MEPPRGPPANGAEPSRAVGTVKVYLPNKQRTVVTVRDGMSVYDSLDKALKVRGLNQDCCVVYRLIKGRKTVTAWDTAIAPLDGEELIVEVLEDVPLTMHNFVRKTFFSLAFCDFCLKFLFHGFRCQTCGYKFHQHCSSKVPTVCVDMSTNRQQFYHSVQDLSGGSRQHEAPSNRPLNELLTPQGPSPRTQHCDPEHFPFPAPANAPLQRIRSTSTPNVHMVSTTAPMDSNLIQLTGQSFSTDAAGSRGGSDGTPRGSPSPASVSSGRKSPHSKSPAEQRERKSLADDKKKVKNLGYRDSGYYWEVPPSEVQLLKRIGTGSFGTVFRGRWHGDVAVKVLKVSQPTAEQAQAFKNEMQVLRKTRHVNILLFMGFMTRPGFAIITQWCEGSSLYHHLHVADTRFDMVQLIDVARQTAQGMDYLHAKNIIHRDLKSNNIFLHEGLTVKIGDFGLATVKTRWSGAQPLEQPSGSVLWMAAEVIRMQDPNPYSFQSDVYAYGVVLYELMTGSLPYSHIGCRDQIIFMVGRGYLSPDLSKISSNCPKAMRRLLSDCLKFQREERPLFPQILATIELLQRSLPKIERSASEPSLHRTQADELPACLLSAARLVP

[28] = biological target: Mitogen-activated protein kinase 1 (Homo sapiens) (UniProt P28482); assay: Inhibition of human ERK2 at 10 uM using MBP as substrate by [gamma-33P]-ATP assay relative to control
Sequence of Mitogen-activated protein kinase 1 (Homo sapiens) (P28482 whole entry): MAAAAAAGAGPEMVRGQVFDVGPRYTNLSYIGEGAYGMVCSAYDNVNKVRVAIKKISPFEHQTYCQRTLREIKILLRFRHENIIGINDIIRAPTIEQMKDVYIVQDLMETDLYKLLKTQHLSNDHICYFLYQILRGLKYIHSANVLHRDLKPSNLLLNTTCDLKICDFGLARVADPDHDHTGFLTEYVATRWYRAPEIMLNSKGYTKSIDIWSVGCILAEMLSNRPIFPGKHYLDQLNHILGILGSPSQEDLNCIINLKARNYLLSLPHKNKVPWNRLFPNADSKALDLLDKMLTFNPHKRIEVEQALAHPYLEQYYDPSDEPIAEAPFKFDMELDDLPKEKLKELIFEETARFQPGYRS

THP-1 = assay: Inhibition of LPS-induced TNFalpha production in human THP1 cells incubated for 1 hr followed by LPS stimulation and measured after 4 hrs by TR-FRET method; type: functional, cell-based
[29] = Stability in rat plasma assessed as remaining compound at 10 uM incubated for 120 mins by LC-MS analysis; type: ADME, cell-free; conditions: read-out: Stability
[30] = Stability in rat plasma assessed as remaining compound at 10 uM incubated for 30 mins by LC-MS analysis; type: ADME, cell-free; conditions: read-out: Stability
[31] = Stability in human plasma assessed as remaining compound at 10 uM incubated for 120 mins by LC-MS analysis; type: ADME, cell-free; conditions: read-out: Stability
[32] = Stability in human plasma assessed as remaining compound at 10 uM incubated for 30 mins by LC-MS analysis; type: ADME, cell-free; conditions: read-out: Stability
[33] = biological target: T1, Mitogen-activated protein kinase 14; assay: Inhibition of p38alpha (unknown origin)

T1 sequence (Q16539 whole entry): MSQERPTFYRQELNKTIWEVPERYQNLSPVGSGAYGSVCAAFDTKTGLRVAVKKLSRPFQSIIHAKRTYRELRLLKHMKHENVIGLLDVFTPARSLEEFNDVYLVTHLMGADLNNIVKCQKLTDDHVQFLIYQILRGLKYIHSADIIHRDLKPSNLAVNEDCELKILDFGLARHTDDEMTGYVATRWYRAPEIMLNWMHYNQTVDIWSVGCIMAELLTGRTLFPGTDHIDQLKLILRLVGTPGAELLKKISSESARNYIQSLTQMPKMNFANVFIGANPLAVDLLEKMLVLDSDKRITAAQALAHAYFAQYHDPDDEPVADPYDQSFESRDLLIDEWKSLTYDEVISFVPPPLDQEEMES

O=C(Nc1cccc(-n2cc(-c3ccncc3)c(-c3ccc(O)c(Cl)c3)n2)c1)c1ccc(Cl)c(Cl)c1
IC50 [1]: 14.3 µM

O=C(O)Cc1ccccc1Nc1c(Cl)cccc1Cl [DICLOFENAC]
inhibition in vivo at 50 mg/kg (Rattus norvegicus): 71.3%

COc1ccc(-c2nn(-c3cccc(NC(=O)Nc4cc(C(F)(F)F)cc(C(F)(F)F)c4)c3)cc2-c2ccncc2)cc1Cl
inhibition [2]: 22.2%
inhibition [3]: 8.99%
inhibition [4]: 4.66%
inhibition [5]: 20.1%
inhibition [6]: -7.26%
inhibition [7]: 0.29%
inhibition [8]: 2.7%
inhibition [9]: -4.12%
inhibition [10]: 35.8%
EC50 [11]: 1.94 µM
inhibition [12]: -3.14%
inhibition [13]: 4.08%
inhibition [14]: -7.69%
inhibition [15]: 86.4%
inhibition [16]: 5.95%
inhibition [17]: -3.13%
inhibition [18]: 2.48%
inhibition [19]: 40.4%
inhibition [20]: -4.38%
inhibition [21]: 0.81%
IC50 [1]: 0.307 µM
inhibition [22]: 2.65%
inhibition [23]: 9%
inhibition [24]: 48.5%
inhibition [25]: 8.96%
inhibition [26]: -6.35%
inhibition [27]: 57%
inhibition [28]: -8.43%

O=C(Nc1cccc(-n2cc(-c3ccncc3)c(-c3ccc(O)c(Cl)c3)n2)c1)c1cc(C(F)(F)F)cc(C(F)(F)F)c1
IC50 [1]: > 30 µM

COc1ccc(-c2nn(-c3cccc(NC(=O)c4cc(C(F)(F)F)cc(C(F)(F)F)c4)c3)cc2-c2ccncc2)cc1Cl
IC50 [1]: 2.33 µM

COc1ccc(-c2nn(-c3cccc(NC(=O)Nc4ccc(Cl)c(C(F)(F)F)c4)c3)cc2-c2ccncc2)cc1Cl
IC50 [1]: 8.54 µM

O=C(Nc1cccc(-n2cc(-c3ccncc3)c(-c3ccc(O)c(Cl)c3)n2)c1)Nc1ccc(Cl)c(Cl)c1
IC50 [1]: 14.4 µM

C[S+]([O-])c1ccc(-c2nc(-c3ccc(F)cc3)c(-c3ccncc3)[nH]2)cc1 (stereo not given) [SB-203580]
IC50 (THP-1): 0.02 µM

COc1ccc([C@@H]2Sc3ccccc3N(CCN(C)C)C(=O)[C@@H]2OC(C)=O)cc1 [DILTIAZEM]
remaining at 2 h, 10 µM [29]: 45.4%
remaining at 0.5 h, 10 µM [30]: 86.3%
remaining at 2 h, 10 µM [31]: 89.3%
remaining at 0.5 h, 10 µM [32]: 91.5%

O=C(Nc1cccc(-n2cc(-c3ccncc3)c(-c3ccc(O)c(Cl)c3)n2)c1)Nc1cccc(C(F)(F)F)c1
IC50 [1]: > 30 µM

CCN(CC)CCOC(=O)c1ccc(N)cc1 [PROCAINE]
remaining at 2 h, 10 µM [29]: 42.7%
remaining at 0.5 h, 10 µM [30]: 89.9%
remaining at 2 h, 10 µM [31]: 0.2%
remaining at 0.5 h, 10 µM [32]: 1.2%

COc1ccc(-c2nn(-c3cccc(NC(=O)Nc4ccccc4)c3)cc2-c2ccncc2)cc1Cl
IC50 [1]: 4 µM

O=C(Nc1ccccc1)Nc1cccc(-n2cc(-c3ccncc3)c(-c3ccc(O)c(Cl)c3)n2)c1
IC50 [1]: > 30 µM

O=C(Nc1cccc(-n2cc(-c3ccncc3)c(-c3ccc(O)c(Cl)c3)n2)c1)c1ccc(N2CCOCC2)c(C(F)(F)F)c1
IC50 [1]: > 30 µM

COc1ccc(-c2nn(-c3cccc(NC(=O)c4ccc(Cl)c(Cl)c4)c3)cc2-c2ccncc2)cc1Cl
IC50 [1]: 1.29 µM

COc1ccc(-c2nn(-c3cccc(NC(=O)c4ccc(N5CCOCC5)c(C(F)(F)F)c4)c3)cc2-c2ccncc2)cc1Cl
IC50 [1]: 6.07 µM

COc1ccc(-c2nn(-c3cccc(NC(=O)Nc4cccc(C(F)(F)F)c4)c3)cc2-c2ccncc2)cc1Cl
IC50 [1]: 12.2 µM

O=C(Nc1cccc(-n2cc(-c3ccncc3)c(-c3ccc(O)c(Cl)c3)n2)c1)Nc1cc(C(F)(F)F)cc(C(F)(F)F)c1
IC50 [1]: > 30 µM

COc1cccc(-c2nn(-c3ccccc3)cc2-c2ccncc2)c1
IC50 [33]: 0.515 µM

O=C(Nc1cccc(-n2cc(-c3ccncc3)c(-c3ccc(O)c(Cl)c3)n2)c1)c1cccc(C(F)(F)F)c1
IC50 [1]: > 30 µM

O=C(Nc1cccc(-n2cc(-c3ccncc3)c(-c3ccc(O)c(Cl)c3)n2)c1)Nc1ccc(Cl)c(C(F)(F)F)c1
IC50 [1]: > 30 µM

COc1ccc(-c2nn(-c3cccc(NC(=O)Nc4ccc(Cl)c(Cl)c4)c3)cc2-c2ccncc2)cc1Cl
IC50 [1]: 2.83 µM
